Test results: ChEMBL document CHEMBL1156346, “Cytotoxic and novel compounds from Solanum indicum” (J Nat Prod, 2001)

Tested on: OVCAR-3
Test: Cytotoxicity against human OVCAR-3 cells
Format: functional, cell-based

For `C=C(C)[C@@H]1CC[C@@]2(C1)C(C)=CC(=O)C[C@H]2C` [SOLAVETIVONE], the IC50 was 100 µM.
